Reference: patent publication US5459063A, “Plasmodium falciparum ribonucleotide reductase DNA” (priority 1993, dated 1995)
Read-outs that look alike come from different tables or passages of the source. Square brackets hold non-standard residues; d marks the D form. Ends that are not written are not given here. Peptide text beside a SMILES is read from it. Phe(4-N3) = [N-]=[N+]=Nc1ccc(C[C@H](N)C(=O)O)cc1; Phe(4-NH2) = Nc1ccc(C[C@H](N)C(=O)O)cc1

T1: calf thymus/mouse ribonucleotide reductase (mammalian RR) (Bos taurus, UniProt Q32LP1)
T1 sequence (Q32LP1 1-791): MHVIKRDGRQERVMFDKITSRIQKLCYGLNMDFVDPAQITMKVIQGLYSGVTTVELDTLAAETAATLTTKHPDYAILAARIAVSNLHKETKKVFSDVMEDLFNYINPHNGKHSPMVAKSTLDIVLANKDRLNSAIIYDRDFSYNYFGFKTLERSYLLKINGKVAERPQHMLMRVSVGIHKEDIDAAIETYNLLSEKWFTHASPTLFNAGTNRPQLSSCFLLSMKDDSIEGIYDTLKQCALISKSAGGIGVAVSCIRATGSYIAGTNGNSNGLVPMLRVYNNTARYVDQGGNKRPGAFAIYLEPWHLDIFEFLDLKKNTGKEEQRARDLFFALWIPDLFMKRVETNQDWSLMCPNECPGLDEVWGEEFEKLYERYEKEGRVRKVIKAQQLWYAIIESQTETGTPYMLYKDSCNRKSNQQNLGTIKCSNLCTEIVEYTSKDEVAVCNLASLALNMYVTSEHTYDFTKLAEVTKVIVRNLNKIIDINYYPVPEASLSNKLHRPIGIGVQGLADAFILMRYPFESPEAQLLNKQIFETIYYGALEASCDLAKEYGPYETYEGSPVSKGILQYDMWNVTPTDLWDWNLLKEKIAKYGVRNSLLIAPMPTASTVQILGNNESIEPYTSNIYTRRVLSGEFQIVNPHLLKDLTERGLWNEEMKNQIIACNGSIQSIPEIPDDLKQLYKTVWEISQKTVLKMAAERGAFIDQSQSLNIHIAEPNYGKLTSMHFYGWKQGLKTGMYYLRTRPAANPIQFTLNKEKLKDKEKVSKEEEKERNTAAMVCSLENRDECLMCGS


Experiments:
[1] = target: T1, calf thymus/mouse ribonucleotide reductase (mammalian RR); assay: biochemical; settings: for Percent RI (percent relative inhibitory potency): 100 × (IC50 Ac(FTLDADF)/IC50 peptide analog)
From the text: From two to four assays were run

Molecule	IC50 [1]	Percent RI (percent relative inhibitory potency) ([1]; Table 4, mammalian RR)	Percent RI (percent relative inhibitory potency), mammalian RR activity (calf thymus R1 (calf))	other results
CC(=O)N[C@@H](Cc1ccc(N)cc1)C(=O)N[C@H](C(=O)N[C@@H](CC(C)C)C(=O)N[C@@H](CC(=O)O)C(=O)N[C@@H](C)C(=O)N[C@@H](CC(=O)O)C(=O)N[C@@H](Cc1ccccc1)C(=O)O)[C@@H](C)O [Peptide 9, Ac- (F(4'-NH2)TLDADF)] (Ac-[Phe(4-NH2)]TLDADF-OH)	100 µM	10%	–	–
CC(=O)N[C@@H](Cc1ccc(N=[N+]=[N-])cc1)C(=O)N[C@H](C(=O)N[C@@H](CC(C)C)C(=O)N[C@@H](CC(=O)O)C(=O)N[C@@H](C)C(=O)N[C@@H](CC(=O)O)C(=O)N[C@@H](Cc1ccccc1)C(=O)O)[C@@H](C)O [Peptide 10, Ac- (F(4'-N3)TLDADF)] (Ac-[Phe(4-N3)]TLDADF-OH)	100 µM	10%	–	–
Ac- (FTFTADF) [Peptide 14]	–	18 ± 4.2%	–	IC50 ([1]; read-out: IC50, concentration of peptide producing 50% inhibition of activity, Table 4, mammalian RR, Dixon plots of 4-6 concentration points, ranges are two independent determinations on different days): 48 to 58 µM
Ac-(FTFTADF) (peptide)	–	–	18%	–
Ac-(FTLDALF) (peptide)	–	–	35%	–
Ac-FALDADF [Peptide 12, Ac- (FALDADF)]	35 to 40 µM	24 ± 4.1%	–	–
Ac-FCLNTEF [Ac-(SEQ ID NO:7), Ac- (FCLNTEF)]	–	–	–	IC50 ([1]; IC50 on mammalian RR activity, Example 54 text, peptide bound to purified calf thymus R1 before adding recombinant mouse R2): 160 µM; times less potent an inhibitor on mammalian RR activity than Ac-(SEQ ID NO:6) ([1]; relative to Ac-(SEQ ID NO:6)): 8-16 times
Ac-FLDADF [Peptide 25, Ac- (FLDADF)]	412 µM	2.5%	–	–
Ac-FSLDADF [Peptide 11, Ac- (FSLDADF)]	40 to 42 µM	25 ± 1.1%	–	–
Ac-FTADADF [Peptide 15, Ac- (FTADADF)]	207 µM	4.9 ± 0.60%	–	–
Ac-FTFNEDF [Peptide 30, Ac- (FTFNEDF)]	100 µM	–	–	–
Ac-FTLAADF [Peptide 17, Ac- (FTLAADF)]	286 to 336 µM	2.9 ± 0.4%	–	–
Ac-FTLDAAF [Peptide 23, Ac- (FTLDAAF)]	34 to 35 µM	28 ± 1.3%	–	–
Ac-FTLDADFAA [Peptide 28]	500 µM	2.1%	–	–
Ac-FTLDADL [Peptide 24, Ac- (FTLDADL)]	> 400 µM	< 3%	–	–
Ac-FTLDAEF [Peptide 20, Ac- (FTLDAEF)]	450 to 620 µM	1.7 ± 0.15%	–	–
Ac-FTLDALF [Peptide 22, Ac- (FTLDALF)]	29 to 30 µM	35 ± 5.0%	–	–
Ac-FTLDANF [Peptide 21, Ac- (FTLDANF)]	32 to 38 µM	23 ± 1.0%	–	–
Ac-FTLDDF [Peptide 26, Ac- (FTLDDF)]	322 µM	3%	–	–
Ac-FTLDF [Peptide 27, Ac- (FTLDF)]	364 to 460 µM	2.5 ± 0.18%	–	–
Ac-FTLDGDF [Peptide 18, Ac- (FTLDGDF)]	110 to 230 µM	9 ± 0.6%	–	–
Ac-FTLDLDF [Peptide 19, Ac- (FTLDLDF)]	28 µM	35%	–	–
Ac-FTLNADF [Peptide 16, Ac- (FTLNADF)]	25 to 29 µM	40 ± 2.4%	–	–
Ac-FTVDADF [Peptide 13, Ac- (FTVDADF)]	30 µM	35%	–	–

Molecule	IC50 [1]	Percent RI (percent relative inhibitory potency) ([1]; Table 4, mammalian RR)	Percent RI (percent relative inhibitory potency), mammalian RR activity (calf thymus R1 (calf))	other results
Ac-LDADF [Peptide 7, Ac- (LDADF)]	> 400 µM	< 3%	–	–
Ac-LTLDADF [Peptide 8, Ac- (LTLDADF)]	> 400 µM	< 3%	–	–
Ac-NSFTLDADF [Peptide 1]	9 to 15 µM	100%	–	–
Ac-SFTLDADF [Peptide 2]	8 to 20 µM	100%	–	–
Ac-TLDADF [Peptide 6, Ac- (TLDADF)]	> 400 µM	< 3%	–	–
FTLDADF [Peptide 5, FTLDADF]	> 400 µM	< 3%	–	–
SFTLDADF (peptide)	–	–	25%	IC50, inhibition of mammalian RR activity (calf thymus R1 (calf)): 80 µM
SFTLDADF [Peptide 3]	80 µM	25%	–	–
Ac-FSLDADF [Ac-(FSLDADF)]	–	–	25%	–
Ac-FTLDLDF [Ac-(FTLDLDF)]	–	–	35%	IC50, inhibition of mammalian RR activity (calf thymus R1 (calf)): 28 µM
Ac-FTLNADF [Ac-(FTLNADF)]	–	–	40%	–
Ac-[Phe(4-NH2)]TLDADF [Ac-(F(4'-NH2)TLDADF)]	–	–	10%	IC50, inhibition of mammalian RR activity (calf thymus R1 (calf)): 100 µM
Ac-LTLDADF [Ac-(LTLDADF)]	–	–	< 3%	IC50, inhibition of mammalian RR activity (calf thymus R1 (calf)): > 400 µM
Ac-FTLDAEF [Ac-(FTLDAEF)]	–	–	1.7%	–
Ac-FTADADF [Ac-(FTADADF)]	–	–	4.9%	IC50, inhibition of mammalian RR activity (calf thymus R1 (calf)): 207 µM
Ac-FALDADF [Ac-(FALDADF)]	–	–	24%	–
Ac-SFTLDADF [Ac-(SFTLDADF)]	–	–	100%	–
Ac-FTVDADF [Ac-(FTVDADF)]	–	–	35%	IC50, inhibition of mammalian RR activity (calf thymus R1 (calf)): 30 µM
Ac-[Phe(4-N3)]TLDADF [Ac-(F(4'-N3)TLDADF)]	–	–	10%	IC50, inhibition of mammalian RR activity (calf thymus R1 (calf)): 100 µM
Ac-LDADF [Ac-(LDADF)]	–	–	< 3%	IC50, inhibition of mammalian RR activity (calf thymus R1 (calf)): > 400 µM
Ac-TLDADF [Ac-(TLDADF)]	–	–	< 3%	IC50, inhibition of mammalian RR activity (calf thymus R1 (calf)): > 400 µM
Ac-FTLAADF [Ac-(FTLAADF)]	–	–	2.9%	–
Ac-FTLDGDF [Ac-(FTLDGDF)]	–	–	9%	–
FTLDADF	–	–	< 3%	IC50, inhibition of mammalian RR activity (calf thymus R1 (calf)): > 400 µM
